Reference: US4411834A, “Preparation of II-deoxy anthracycline antibiotics” (Farmitalia Carlo Erba, S.p.A., priority 1978, dated 1983)
Converted amounts (≈) assume the structure as drawn. Read-outs that look alike come from different tables or passages of the source.

Legend:
[1] = Toxic deaths in leukemia-bearing mice; assay type: in vivo; details: for Toxic deaths: intraperitoneally on day 1, macroscopic autopsy findings
Description: (§1) The new glycosides were tested against HeLa cells in vitro (time of exposure to the drugs: 24 hours), and on L 1210 and P 388 leukemia in mice in comparison with daunomycin.

HeLa cells = assay: Effect on HeLa cells viability in vitro; assay type: cell-based; details: Homo sapiens; for activity at 0.05 µg/mL: dose 50 ng/ml; for activity at 0.1 µg/mL: dose 100 ng/ml; for activity at 0.2 µg/mL: dose 200 ng/ml; for activity at 0.4 µg/mL: dose 400 ng/ml
Description: as §1
^(a) HeLa cells were exposed to the drugs for 24 hours, then plated.
Number of colonies was evaluated 5 days later.
^(b) % over untreated controls.

Sarcina lutea ATCC 9341 = assay: MIC, standard tube dilution procedure; assay type: cell-based; details: Micrococcus luteus, ATCC9341, in vitro
Description: (§2) The "in vitro" minimum inhibitory concentrations (MIC) of glycosides A, B, C and D were determined for certain microorganisms using the standard tube dilution procedure and are reported in Table 6.

[2] = system: Bacillus subtilis ATCC 6633; assay: MIC, standard tube dilution procedure; assay type: cell-based; details: ATCC6633, in vitro
Description: as §2

Escherichia coli B = assay: MIC, standard tube dilution procedure; assay type: cell-based; details: in vitro
Description: as §2

[3] = system: Staphylococcus aureus 153; assay: MIC, standard tube dilution procedure; assay type: cell-based; details: in vitro
Description: as §2

[4] = system: Staphylococcus aureus 209 P; assay: MIC, standard tube dilution procedure; assay type: cell-based; details: in vitro
Description: as §2

P 388 leukemia = assay: Effect against P 388 leukemia in mice; assay type: in vivo
Description: as §1
^(a) Mice were treated intraperitoneally on day 1 after tumor cell

[5] = 24 h, read-out: No. of colonies, % over untreated controls
[6] = 24 h, HeLa cells, 24 hours exposure, colonies evaluated 5 days later (Table 7), read-out: ID50 (the source's name)
[7] = 24 h, HeLa cells, 24 hours exposure, read-out: ID50 (the source's name)
[8] = 24 hours exposure, read-out: No. of colonies, % over untreated controls

Compound: COc1cccc2c1C(=O)c1c(O)c3c(c(O)c1C2=O)C[C@@](O)(C(C)=O)C[C@@H]3O[C@H]1C[C@H](N)[C@H](O)[C@H](C)O1 [Daunomycin, reference compound]
- Toxic deaths ([1]; 6.6 mg/kg): 14/26
- IC50 (HeLa cells; 24 h, read-out: ID50): 0.006 to 0.007 µg/mL (≈ 0.0114 to 0.0133 µM)
- activity at 0.00312 µg/mL (HeLa cells; [5]): 71 to 80%
- activity at 0.00625 µg/mL (HeLa cells; [5]): 48 to 66%

Compound: COc1cccc2c1C(=O)c1c(cc3c(c1O)[C@@H](O[C@H]1C[C@H](N)[C@H](O)[C@H](C)O1)C[C@](O)(C(=O)CO)C3)C2=O [Glycoside A, 11-deoxyadriamycin]
- MIC (Sarcina lutea ATCC 9341): 100 µg/mL (≈ 190 µM)
- MIC [2]: 100 µg/mL (≈ 190 µM)
- MIC (Escherichia coli B): 50 µg/mL (≈ 94.8 µM)
- MIC [3]: 500 µg/mL (≈ 948 µM)
- MIC [4]: 125 µg/mL (≈ 237 µM)
- Toxicity (in words) ([1]; dose of 100 mg/kg, mice): toxic
- Antitumor activity compared with daunomycin (in words) (P 388 leukemia; at the tolerated dose): greater than that of daunomycin
- Activity against P 338 leukemia (in words) (P 388 leukemia; dose of 66 mg/kg): active
- IC50 (HeLa cells; [6]): 0.105 µg/mL (≈ 0.199 µM)
- IC50 (HeLa cells; [7]): 0.1 µg/mL (≈ 0.19 µM)
- activity at 0.025 µg/mL (HeLa cells; dose 25 ng/ml, 24 hours exposure, read-out: No. of colonies, % over untreated controls): 74%
- activity at 0.05 µg/mL (HeLa cells; [8]): 73%
- activity at 0.1 µg/mL (HeLa cells; [8]): 63%
- activity at 0.2 µg/mL (HeLa cells; [8]): 1%

Compound: COc1cccc2c1C(=O)c1c(cc3c(c1O)[C@@H](O[C@H]1C[C@H](N)[C@H](O)[C@H](C)O1)C[C@](O)(C(C)O)C3)C2=O (stereo partly drawn) [Glycoside B, 11-deoxy-13-dihydrodaunomycin]
- MIC (Sarcina lutea ATCC 9341): 100 µg/mL (≈ 195 µM)
- MIC [2]: 100 µg/mL (≈ 195 µM)
- MIC (Escherichia coli B): 100 µg/mL (≈ 195 µM)
- MIC [3]: 1000 µg/mL (≈ 1950 µM)
- MIC [4]: 1000 µg/mL (≈ 1950 µM)
- Toxic deaths ([1]; 500 mg/kg): 2/2
- IC50 (HeLa cells; [7]): 0.44 µg/mL (≈ 0.857 µM)
- activity at 0.4 µg/mL (HeLa cells; [8]): 66%
- activity at 0.8 µg/mL (HeLa cells; dose 800 ng/ml, 24 hours exposure, read-out: No. of colonies, % over untreated controls): 20%
- activity at 1.6 µg/mL (HeLa cells; dose 1600 ng/ml, 24 hours exposure, read-out: No. of colonies, % over untreated controls): 0%

Compound: COc1cccc2c1C(=O)c1c(cc3c(c1O)[C@@H](O[C@H]1C[C@H](N)[C@H](O)[C@H](C)O1)C[C@](O)(C(C)=O)C3)C2=O [Glycoside C, 11-deoxydaunomycin]
- MIC (Sarcina lutea ATCC 9341): 12.5 µg/mL (≈ 24.4 µM)
- MIC [2]: 50 µg/mL (≈ 97.7 µM)
- MIC (Escherichia coli B): 25 µg/mL (≈ 48.9 µM)
- MIC [3]: 250 µg/mL (≈ 489 µM)
- MIC [4]: 62 µg/mL (≈ 121 µM)
- Toxic deaths ([1]; 100 mg/kg): 3/8
- Toxic deaths ([1]; 150 mg/kg): 3/19
- IC50 (HeLa cells; [6]): 0.054 µg/mL (≈ 0.106 µM)
- IC50 (HeLa cells; [7]): 0.05 µg/mL (≈ 0.0977 µM)
- activity at 0.05 µg/mL (HeLa cells; [8]): 54%
- activity at 0.1 µg/mL (HeLa cells; [8]): 44%
- activity at 0.2 µg/mL (HeLa cells; [8]): 3%

Compound: CC[C@]1(O)Cc2cc3c(c(O)c2[C@@H](O[C@H]2C[C@H](N)[C@H](O)[C@H](C)O2)C1)C(=O)c1c(OC)cccc1C3=O [Glycoside D, 11-deoxy-13-deoxo-daunomycin]
- MIC (Sarcina lutea ATCC 9341): 25 µg/mL (≈ 50.2 µM)
- MIC [2]: 100 µg/mL (≈ 201 µM)
- MIC (Escherichia coli B): 50 µg/mL (≈ 100 µM)
- MIC [3]: 1000 µg/mL (≈ 2010 µM)
- MIC [4]: 250 µg/mL (≈ 502 µM)
- Toxic deaths ([1]; 125 mg/kg): 5/5
- Toxic deaths ([1]; 250 mg/kg): 5/5
- IC50 (HeLa cells; [7]): 0.22 µg/mL (≈ 0.442 µM)
- activity at 0.1 µg/mL (HeLa cells; [8]): 109%
- activity at 0.2 µg/mL (HeLa cells; [8]): 53%
- activity at 0.4 µg/mL (HeLa cells; [8]): 0%
